From patent publication US8481586B2, “Pyrrolo[2,3-a] carbazoles and use thereof as PIM kinase inhibitors” (Centre National de la Recherche Scientifique, priority 2008, dated 2013) come the findings set out here.

Broadly, the IC50 is the concentration that inhibits the measured activity by half.

SMILES strings stand for the structures.

Common to all, as to assay type: biochemical
In one assay the target is PIM-2 (Homo sapiens (Human), UniProt Q9P1W9). Briefly: inhibition test on kinase PIM-2 (residual activity, IC50). The settings on record: product at 10 μmol/L; Table 2; N.I. = not inhibitory; read-out: Percentage of residual activity PIM-2. The source says:
(§1) MKK1, ERK 1, ERK 2, JNK1, JNK2, JNK3, p38a MAPK, p38b MAPK, p38g MAPK, p38s MAPK, ERK8, RSK1, RSK2, PDK1, PKBa, PKBb, SGK1, S6K1, PKA, ROCK2, PRK2, PKCa, PKC zeta, PKD1, MSK1, MNK1, MNK2, MAPKAP-K2, MAPKAP-K3, PRAK, CAMKKa, CAMKKb, CAMK1, SmMLCK, PHK, CHK1, CHK2, GSK3b, CDK2/cyclin A, PLK1, PLK1 (Okadaic acid), Aurora B, Aurora C, AMPK, MARK3, BRSK2, MELK, CK1, CK2, NEK2a, NEK6, NEK7, IKKb, PIM-1, PIM-2, PIM-3, SRPK1, MST2, EF2K, HIPK2, HIPK3, PAK-4, PAK5, PAK6, Src, Lck, CSK.
(§2) The results in terms of residual activity of the kinases after being placed in contact with the compounds of Examples 2, 3 and 5, at a concentration of 10 μM (10 μmol/L), are shown in Table 1 below.
(§3) The higher the residual activity of the kinase tested, the lower the inhibitory activity of the test compounds on the tested kinase.
(§4) The compounds according to the invention were then tested on the kinases PIM-1, PIM-2 and PIM-3.
(§5) The results in terms of percentage of residual activity after placing the compounds according to the invention in contact with each of the kinases PIM-1, PIM-2 and PIM-3 are given in Table 2 below.
(§6) The higher the residual activity, the lower the inhibitory activity of the test compounds.
(§7) The mean inhibitory concentrations (IC50) of certain preferred compounds of the invention were determined in the following manner: the IC50 values were measured after performing the inhibition tests on the kinases PIM-1, PIM-2 and PIM-3 at ten different concentrations for each test compound, and the IC50 value was determined from the dose-inhibition curves obtained.

A further assay addresses PIM-1 (Homo sapiens (Human), UniProt P11309). In words: inhibition test on kinase PIM-1 (residual activity, IC50). The settings on record: for remaining activity at 10 µM: product at 10 μmol/L, Table 2, N.I. = not inhibitory, read-out: Percentage of residual activity PIM-1.
From the text: as §1, §2, §3, §4, §5, §6, §7

The target of the next assay is PIM-3 (Homo sapiens (Human), UniProt Q86V86). Briefly: inhibition test on kinase PIM-3 (residual activity, IC50). The settings on record: for remaining activity at 10 µM: product at 10 μmol/L, Table 2, N.I. = not inhibitory, read-out: Percentage of residual activity PIM-3; for IC50: ten concentrations, dose-inhibition curve.
From the text: as §1, §2, §3, §4, §5, §6, §7

Chain of PIM-2 (Q9P1W9 whole entry, species assumed): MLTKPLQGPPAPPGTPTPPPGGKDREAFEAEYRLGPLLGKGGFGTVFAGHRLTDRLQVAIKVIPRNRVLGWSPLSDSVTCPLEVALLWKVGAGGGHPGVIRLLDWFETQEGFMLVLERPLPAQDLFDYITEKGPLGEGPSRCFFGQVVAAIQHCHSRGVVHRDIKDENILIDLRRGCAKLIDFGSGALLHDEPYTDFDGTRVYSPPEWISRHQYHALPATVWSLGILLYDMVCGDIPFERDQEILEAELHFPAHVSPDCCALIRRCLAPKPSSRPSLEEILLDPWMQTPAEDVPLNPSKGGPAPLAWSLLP
Chain of PIM-1 (P11309 whole entry, species assumed): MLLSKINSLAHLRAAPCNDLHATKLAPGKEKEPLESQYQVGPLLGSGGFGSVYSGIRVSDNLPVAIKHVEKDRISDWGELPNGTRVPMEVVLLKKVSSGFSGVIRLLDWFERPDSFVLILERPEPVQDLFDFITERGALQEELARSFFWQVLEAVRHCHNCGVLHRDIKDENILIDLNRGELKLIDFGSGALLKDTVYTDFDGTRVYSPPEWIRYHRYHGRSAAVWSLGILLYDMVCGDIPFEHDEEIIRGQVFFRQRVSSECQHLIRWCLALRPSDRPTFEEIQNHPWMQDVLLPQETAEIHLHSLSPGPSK

As for `O=S(=O)(c1ccccc1)n1ccc2ccc3c4ccccc4[nH]c3c21` [Example 1, 1-benzenesulfonyl-1,10-dihydropyrrolo[2,3-a]carbazole], the values for the remaining activity at 10 µM on PIM-2, on PIM-1 and at PIM-3 were 62%, 61% and 64%, respectively.
On the same counts, the results for `OCc1c[nH]c2c1ccc1c3ccccc3[nH]c12` [Example 4, (1,10-dihydropyrrolo[2,3-a]carbazol-3-yl)methanol] are 47%, 28% and 18%.
Turning to `O=C(c1c[nH]c2c1ccc1c3ccccc3[nH]c12)C(F)(F)F` [Example 6, 1-(1,10-dihydropyrrolo[2,3-a]carbazol-3-yl)-2,2,2-trifluoroethanone], the remaining activity at 10 µM on PIM-2 was found to be 30%; at PIM-1 it was 20%; on PIM-3, 7%. The compound also yielded an IC50 at PIM-3 of 0.17 µM.
`CCOC(=O)C(=O)c1c[nH]c2c1ccc1c3ccccc3[nH]c12` [Example 8, ethyl 2-(1,10-dihydropyrrolo[2,3-a]carbazol-3-yl)-2-oxoacetate]: the remaining activity at 10 µM on PIM-2 turned out to be 47%; at PIM-1, 44%; at PIM-3, 33%.
In the same order, the values of `OCCc1c[nH]c2c1ccc1c3ccccc3[nH]c12` [Example 9, 2-(1,10-dihydropyrrolo[2,3-a]carbazol-3-yl)ethanol] are 50%, 35% and 21%.
`CCN(CC)C(=O)C(=O)c1c[nH]c2c1ccc1c3ccccc3[nH]c12` [Example 10, 2-(1,10-dihydropyrrolo[2,3-a]carbazol-3-yl)-N,N-diethyl-2-oxoacetamide]: the remaining activity at 10 µM at PIM-2 amounted to 51%; on PIM-1 it was 54%; at PIM-3 it was 39%.
On the same counts, the results for `CCN(CC)CCc1c[nH]c2c1ccc1c3ccccc3[nH]c12` [Example 11, 2-(1,10-dihydropyrrolo[2,3-a]carbazol-3-yl)-N,N-diethylethanamine] are 78%, 39% and 25%.
With `CCN(CC)CC(O)c1c[nH]c2c1ccc1c3ccccc3[nH]c12` (stereo not shown) [Example 12, 1-(1,10-dihydropyrrolo[2,3-a]carbazol-3-yl)-2-diethylaminoethanol], the remaining activity at 10 µM on PIM-2 worked out at 53%; at PIM-1, 24%; at PIM-3, 16%.
On the same counts, the results for `CCN(CC)C(=O)/C(=N\O)c1c[nH]c2c1ccc1c3ccccc3[nH]c12` [Example 13, 2-(1,10-dihydropyrrolo[2,3-a]carbazol-3-yl)-N,N-diethyl-2-hydroxyiminoethanamide] are 27%, 41% and 21%.
On the same counts, the results for `O=S(=O)(c1ccccc1)n1ccc2ccc3c4cc(Br)ccc4[nH]c3c21` [Example 14, 1-benzenesulfonyl-7-bromo-1,10-dihydropyrrolo-[2,3-a]carbazole] are 52%, 51% and 61%.
In the case of `Brc1ccc2[nH]c3c(ccc4cc[nH]c43)c2c1` [Example 15, 7-bromo-1,10-dihydropyrrolo[2,3-a]carbazole], the remaining activity at 10 µM on PIM-2 was found to be 46%; on PIM-1, 12%; on PIM-3, 8%. The compound further gave an IC50 against PIM-3 of 0.44 µM.
Take `O=Cc1c[nH]c2c1ccc1c3cc(Br)ccc3[nH]c12` [Example 16, 7-bromo-1,10-dihydropyrrolo[2,3-a]carbazole-3-carbaldehyde]: the results for the remaining activity at 10 µM at PIM-2, at PIM-1 and at PIM-3 were 57%, 6% and 6%, respectively. Further, the IC50 was found to be 0.57 µM at PIM-1 (ten concentrations, dose-inhibition curve) and 0.04 µM against PIM-3.
